What was measured:
Format in all cases: in vivo
[1] = system: Echinochloa crus-galli (ECHCG); assay: B1 Pre-emergence herbicidal activity; settings: pre-emergence application, evaluated after 13 days; for ECHCG damage score (0-5): Rate 1000 g/ha, Test 1b
Summary of the method: (§1)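 Seeds sown in standard soil in pots, held one day in a glasshouse (24/16 °C day/night, 14 h light, 65% humidity), then sprayed pre-emergence with compound in acetone/water (50:50) with 0.5% Tween 20. Plants grown under the same conditions, watered twice daily; damage scored after 13 days (0 = none, 5 = total).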

[2] = system: Abutilon theophrasti (ABUTH); assay: B2 Post-emergence herbicidal activity; settings: post-emergence application, Rate 1000 g/ha, evaluated after 13 days, Test 2b
Summary of the method: (§2)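 Plants grown 8 days in standard soil in pots, then sprayed post-emergence with active ingredient in acetone/water (50:50) with 0.5% Tween 20. Glasshouse at 24/16 °C day/night, 14 h light, 65% humidity, watered twice daily. Damage scored after 13 days on a 0–5 scale (5 = total damage).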

[3] = system: Amaranthus retroflexus (AMARE); assay: B2 Post-emergence herbicidal activity; settings: post-emergence application, Rate 1000 g/ha, evaluated after 13 days, Test 2b
Summary of the method: as §2

Setaria fabenr (SETFA) = assay: B1 Pre-emergence herbicidal activity; settings: pre-emergence application, evaluated after 13 days; for SETFA damage score (0-5): Rate 1000 g/ha, Test 1b
Summary of the method: as §1

[4] = system: Echinochloa crus-galli (ECHCG); assay: B2 Post-emergence herbicidal activity; design: key to Post-emergence herbicidal activity, ECHCG (damage score 0-5): 5=total damage to plant; 0=no damage to plant; settings: post-emergence application, evaluated after 13 days; for ECHCG damage score (0-5): Rate 1000 g/ha, Test 2b
Summary of the method: as §2

Setaria fabenri (SETFA) = assay: B2 Post-emergence herbicidal activity; design: key: 5=total damage to plant; 0=no damage to plant; settings: post-emergence application, evaluated after 13 days; for SETFA damage score (0-5): Rate 1000 g/ha, Test 2b
Summary of the method: as §2

Zea Mays (ZEAMX) [5] = assay: B2 Post-emergence herbicidal activity; design: key: 5=total damage to plant; 0=no damage to plant; settings: post-emergence application, Rate 1000 g/ha, evaluated after 13 days, Test 2b
Summary of the method: as §2

Lolium perenne (LOLPE) [6] = assay: B2 Post-emergence herbicidal activity; settings: post-emergence application, evaluated after 13 days; for LOLPE damage score (0-5): Rate 1000 g/ha, Test 2b
Summary of the method: as §2

Zea Mays (ZEAMX) [7] = assay: B1 Pre-emergence herbicidal activity; design: key: 5=total damage to plant; 0=no damage to plant; settings: pre-emergence application, Rate 1000 g/ha, evaluated after 13 days, Test 1b
Summary of the method: as §1

[8] = system: Amaranthus retroflexus (AMARE); assay: B1 Pre-emergence herbicidal activity; design: key: 5=total damage to plant; 0=no damage to plant; settings: pre-emergence application, Rate 1000 g/ha, evaluated after 13 days, Test 1b
Summary of the method: as §1

Lolium perenne (LOLPE) [9] = assay: B1 Pre-emergence herbicidal activity; settings: pre-emergence application, evaluated after 13 days; for LOLPE damage score (0-5): Rate 1000 g/ha, Test 1b
Summary of the method: as §1

[10] = system: Abutilon theophrasti (ABUTH); assay: B1 Pre-emergence herbicidal activity; settings: pre-emergence application, Rate 1000 g/ha, evaluated after 13 days, Test 1b
Experimental: Seeds of a variety of test species were sown in standard soil in pots: Triticum aestivium (TRZAW), Avena fatua (AVEFA), Alopecurus myosuroides (ALOMY), Echinochloa crus-galli (ECHCG), Lolium perenne (LOLPE), Zea Mays (ZEAMX), Abutilon theophrasti (ABUTH), Amaranthus retroflexus (AMARE) and Setaria fabenr (SETFA). After cultivation for one day (pre-emergence) under controlled conditions in a glasshouse (at 24/16° C., day/night; 14 hours light; 65% humidity), the plants were sprayed with an aqueous spray solution derived from the formulation of the technical active ingredient in acetone I water (50:50) solution containing 0.5% Tween 20 (polyoxyethelyene sorbitan monolaurate, CAS RN 9005-64-5). The test plants were then grown in a glasshouse under controlled conditions (at 24/16° C., day/night; 14 hours light; 65% humidity) and watered twice daily. After 13 days, the test was evaluated (5=total damage to plant; 0=no damage to plant).

Avena fatua (AVEFA) [11] = assay: B2 Post-emergence herbicidal activity; settings: post-emergence application, rate 1000 g/ha, evaluated after 13 days
Summary of the method: as §2

[12] = system: Triticum aestivium (TRZAW); assay: B2 Post-emergence herbicidal activity; design: key: 5=total damage to plant; 0=no damage to plant; settings: post-emergence application, rate 1000 g/ha, evaluated after 13 days
Summary of the method: as §2

[13] = system: Alopecurus myosuroides (ALOMY); assay: B2 Post-emergence herbicidal activity; design: key: 5=total damage to plant; 0=no damage to plant; settings: post-emergence application, rate 1000 g/ha, evaluated after 13 days
Summary of the method: as §2

[14] = system: Triticum aestivium (TRZAW); assay: B1 Pre-emergence herbicidal activity; design: key: 5=total damage to plant; 0=no damage to plant; settings: pre-emergence application, rate 1000 g/ha, evaluated after 13 days
Summary of the method: as §1

Avena fatua (AVEFA) [15] = assay: B1 Pre-emergence herbicidal activity; design: key: 5=total damage to plant; 0=no damage to plant; settings: pre-emergence application, rate 1000 g/ha, evaluated after 13 days
Summary of the method: as §1

[16] = system: Alopecurus myosuroides (ALOMY); assay: B1 Pre-emergence herbicidal activity; design: key: 5=total damage to plant; 0=no damage to plant; settings: pre-emergence application, rate 1000 g/ha, evaluated after 13 days
Summary of the method: as §1

Row | SMILES | ECHCG damage score (0-5) [1] | ABUTH damage score (0-5) [2] | AMARE damage score (0-5) [3] | SETFA damage score (0-5) (Setaria fabenr (SETFA)) | ECHCG damage score (0-5) [4] | SETFA damage score (0-5) (Setaria fabenri (SETFA)) | ZEAMX damage score (0-5) (Zea Mays (ZEAMX) [5]) | LOLPE damage score (0-5) (Lolium perenne (LOLPE) [6]) | ZEAMX damage score (0-5) (Zea Mays (ZEAMX) [7]) | AMARE damage score (0-5) [8] | LOLPE damage score (0-5) (Lolium perenne (LOLPE) [9]) | ABUTH damage score (0-5) [10] | further results
1 | CC(C)C(=O)Nc1ccc(-c2cncc(F)c2)nc1C(F)(F)F [Compound C10, N-[6-(5-fluoro-3-pyridyl)-2-(trifluoromethyl)-3-pyridyl]-2-methyl-propanamide] | 4 | 1 | 1 | 4 | 4 | 4 | 5 | 3 | 5 | 0 | 2 | 1 | 
2 | CC(=O)Nc1ccc(-c2cncc(F)c2)nc1C(F)(F)F [Compound C9, N-[6-(5-fluoro-3-pyridyl)-2-(trifluoromethyl)-3-pyridyl]acetamide] | 3 | 2 | 2 | 4 | 4 | 5 | 5 | 3 | 5 | 2 | 2 | 1 | 
3 | O=C(COc1ccccc1)Nc1ccc(-c2cncc(F)c2)nc1C(F)(F)F [Compound C28] |  |  |  |  |  |  |  |  |  |  |  |  | Pre-emergence herbicidal activity, ECHCG (damage score 0-5) ([1]; rate 1000 g/ha): 4; Post-emergence herbicidal activity, AVEFA (damage score 0-5) (Avena fatua (AVEFA) [11]): 4; Pre-emergence herbicidal activity, SETFA (damage score 0-5) (Setaria fabenr (SETFA); rate 1000 g/ha): 4; Post-emergence herbicidal activity, ECHCG (damage score 0-5) ([4]; rate 1000 g/ha): 5; Post-emergence herbicidal activity, SETFA (damage score 0-5) (Setaria fabenri (SETFA); rate 1000 g/ha): 5; Post-emergence herbicidal activity, TRAZW (damage score 0-5) [12]: 0; Post-emergence herbicidal activity, ALOMY (damage score 0-5) [13]: 0; Post-emergence herbicidal activity, LOLPE (damage score 0-5) (Lolium perenne (LOLPE) [6]; rate 1000 g/ha): 3; Pre-emergence herbicidal activity, TRAZW (damage score 0-5) [14]: 0; Pre-emergence herbicidal activity, AVEFA (damage score 0-5) (Avena fatua (AVEFA) [15]): 3; Pre-emergence herbicidal activity, ALOMY (damage score 0-5) [16]: 0; Pre-emergence herbicidal activity, LOLPE (damage score 0-5) (Lolium perenne (LOLPE) [9]; rate 1000 g/ha): 1

Source: patent US11230538B2, “Herbicides” (SYNGENTA PARTICIPATIONS AG, priority 2016, dated 2022)
